pIC50: −log10 of the molar value.
What was measured:
[1] = target: T1, PTPN2 (i.e., TC-PTP) (Homo sapiens, UniProt P17706); experiment: Phosphatase activity assay (DiFMUP substrate), PTPN2; format: biochemical; details: compounds binned ≤1 uM or >1 uM
T1 sequence (P17706 1-415): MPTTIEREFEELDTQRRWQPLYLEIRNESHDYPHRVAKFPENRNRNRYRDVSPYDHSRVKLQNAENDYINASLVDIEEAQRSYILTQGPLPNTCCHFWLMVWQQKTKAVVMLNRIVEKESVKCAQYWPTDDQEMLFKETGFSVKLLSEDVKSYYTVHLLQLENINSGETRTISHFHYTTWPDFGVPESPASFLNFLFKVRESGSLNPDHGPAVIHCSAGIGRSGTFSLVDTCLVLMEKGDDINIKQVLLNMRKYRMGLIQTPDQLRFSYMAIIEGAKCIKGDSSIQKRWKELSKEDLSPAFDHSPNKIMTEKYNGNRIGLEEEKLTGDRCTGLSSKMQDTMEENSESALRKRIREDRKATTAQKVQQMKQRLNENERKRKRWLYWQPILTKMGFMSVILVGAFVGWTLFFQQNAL
How it was run: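 Enzyme (e.g. PTPN2 0.025 ng/ul) mixed about 2 min with compound at 10 serial concentrations in 50 mM HEPES pH 7.5, 150 mM NaCl, 0.5 mM EDTA, 1 mM DTT, 0.001% Tween-20 at room temperature. DiFMUP added at each enzyme's Km (about 45 μM for PTPN2). DiFMU fluorescence (ex 360/em 450 nm) followed 15-30 min; IC50 from 4-parameter fit of rates.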

[2] = target: T2, PTPN1 (i.e., PTP1B) (Homo sapiens, UniProt P18031); experiment: Phosphatase activity assay (DiFMUP substrate), PTP1B; format: biochemical; details: compounds binned ≤1 uM or >1 uM
T2 sequence (P18031 1-435): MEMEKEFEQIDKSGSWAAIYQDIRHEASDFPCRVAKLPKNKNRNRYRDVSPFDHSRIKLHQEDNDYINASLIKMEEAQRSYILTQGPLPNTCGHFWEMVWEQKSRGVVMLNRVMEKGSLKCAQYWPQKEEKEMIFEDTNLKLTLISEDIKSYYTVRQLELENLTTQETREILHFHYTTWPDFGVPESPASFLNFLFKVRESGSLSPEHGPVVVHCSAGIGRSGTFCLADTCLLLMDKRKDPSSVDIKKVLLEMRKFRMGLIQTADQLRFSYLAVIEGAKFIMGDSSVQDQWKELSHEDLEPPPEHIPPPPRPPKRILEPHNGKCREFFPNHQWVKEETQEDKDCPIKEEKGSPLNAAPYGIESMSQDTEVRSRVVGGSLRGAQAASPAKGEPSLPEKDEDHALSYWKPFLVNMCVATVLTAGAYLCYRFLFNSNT
How it was run: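 First, serially diluted inhibitor is mixed about 2 minutes with enzyme in pH 7.5 HEPES/NaCl/EDTA/DTT/Tween-20 buffer. Next, DiFMUP is added at the enzyme's Km, approximately 45 μM for PTPN2. Finally, DiFMU appearance is read continuously at room temperature and rates are fitted for IC50.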

Question: Which results are given for O=C1CN(c2c(O)ccc(-c3cc(C4CC4)nn3CC3CC3)c2F)S(=O)(=O)N1 [Compound 239, 5-(3-(3-cyclopropyl-1-(cyclopropylmethyl)-1H-pyrazol-5-yl)-2-fluoro-6-hydroxyphenyl)-1,2,5-thiadiazolidin-3-one 1,1-dioxide]?
Answer: pIC50 [1]: ≥ 6.00; pIC50 [2]: ≥ 6.00

Question: O=C1CN(c2c(O)ccc(-c3cc(C4CC4)n(CC4CC4)n3)c2F)S(=O)(=O)N1 [Compound 409, 5-(3-(5-cyclopropyl-1-(cyclopropylmethyl)-1H-pyrazol-3-yl)-2-fluoro-6-hydroxyphenyl)-1,2,5-thiadiazolidin-3-one 1,1-dioxide] was tested. Which pIC50 [1] did it give?
Answer: ≥ 6.00

Question: And the pIC50 [2]?
Answer: ≥ 6.00

Question: Which results are given for CC(C)CNC1(c2cc(-c3ccc(O)c(N4CC(=O)NS4(=O)=O)c3F)nn2C)CC1 [Compound 269, 5-(2-fluoro-6-hydroxy-3-(5-(1-(isobutylamino)cyclopropyl)-1-methyl-1H-pyrazol-3-yl)phenyl)-1,2,5-thiadiazolidin-3-one 1,1-dioxide]?
Answer: pIC50 [1]: ≥ 6.00; pIC50 [2]: ≥ 6.00

Question: With O=C1CN(c2c(O)ccc(-c3ccc(N4CCCC4)cc3)c2F)S(=O)(=O)N1 [Compound 117, 5-(2-fluoro-4-hydroxy-4′-(pyrrolidin-1-yl)-[1,1′-biphenyl]-3-yl)-1,2,5-thiadiazolidin-3-one 1,1-dioxide] as the compound, how does the pIC50 [1] read?
Answer: ≥ 6.00

Question: What about the pIC50 [2] of the same compound?
Answer: ≥ 6.00

Question: O=C1CN(c2c(O)ccc(-c3ccnc(OCC4CC4)c3)c2F)S(=O)(=O)N1 [Compound 167, 5-(3-(2-(cyclopropylmethoxy)pyridin-4-yl)-2-fluoro-6-hydroxyphenyl)-1,2,5-thiadiazolidin-3-one 1,1-dioxide] was tested. Which pIC50 [1] did it give?
Answer: ≥ 6.00

Question: What about the pIC50 [2] of the same compound?
Answer: ≥ 6.00

Question: What does the source list for CC(C)c1cc(-c2ccc(O)c(N3CC(=O)NS3(=O)=O)c2F)nn1C [Compound 447, 5-(2-fluoro-6-hydroxy-3-(5-isopropyl-1-methyl-1H-pyrazol-3-yl)phenyl)-1,2,5-thiadiazolidin-3-one 1,1-dioxide]?
Answer: pIC50 [1]: ≥ 6.00; pIC50 [2]: ≥ 6.00

Question: O=C1CN(c2c(O)ccc(C3CNC(CO)C3)c2F)S(=O)(=O)N1 (stereo not shown) [Compound 327, 5-(2-fluoro-6-hydroxy-3-(5-(hydroxymethyl)pyrrolidin-3-yl)phenyl)-1,2,5-thiadiazolidin-3-one 1,1-dioxide] was tested. Which pIC50 [1] did it give?
Answer: ≥ 6.00

Question: And the pIC50 [2]?
Answer: ≥ 6.00

Question: What does the source list for O=C1CN(c2c(O)ccc(-c3cc(C(=O)NC4CC4)n[nH]3)c2F)S(=O)(=O)N1 [Compound 460, N-cyclopropyl-5-(3-(1,1-dioxido-4-oxo-1,2,5-thiadiazolidin-2-yl)-2-fluoro-4-hydroxyphenyl)-1H-pyrazole-3-carboxamide]?
Answer: pIC50 [1]: < 6.00; pIC50 [2]: ≥ 6.00

Question: What does the source list for COc1ccccc1-n1cnc(-c2ccc(O)c(N3CC(=O)NS3(=O)=O)c2F)c1 [Compound 346, 5-(2-fluoro-6-hydroxy-3-(1-(2-methoxyphenyl)-1H-imidazol-4-yl)phenyl)-1,2,5-thiadiazolidin-3-one 1,1-dioxide]?
Answer: pIC50 [1]: ≥ 6.00; pIC50 [2]: ≥ 6.00

Question: With CCCCC1C=C(c2ccc(O)c(N3CC(=O)NS3(=O)=O)c2F)CN1 (stereo not shown) [Compound 523, 5-(3-(5-butyl-2,5-dihydro-1H-pyrrol-3-yl)-2-fluoro-6-hydroxyphenyl)-1,2,5-thiadiazolidin-3-one 1,1-dioxide] as the compound, how does the pIC50 [1] read?
Answer: ≥ 6.00

Question: And the pIC50 [2]?
Answer: ≥ 6.00

Question: With Cc1n[nH]c(-c2ccc(O)c(N3CC(=O)NS3(=O)=O)c2F)c1C [Compound 375, 5-(3-(3,4-dimethyl-1H-pyrazol-5-yl)-2-fluoro-6-hydroxyphenyl)-1,2,5-thiadiazolidin-3-one 1,1-dioxide] as the compound, how does the pIC50 [1] read?
Answer: ≥ 6.00

Question: What about the pIC50 [2] of the same compound?
Answer: ≥ 6.00

Question: Cn1cnc(-c2ccc(O)c(N3CC(=O)NS3(=O)=O)c2F)n1 [Compound 237, 5-(2-fluoro-6-hydroxy-3-(1-methyl-1H-1,2,4-triazol-3-yl)phenyl)-1,2,5-thiadiazolidin-3-one 1,1-dioxide] was tested. Which pIC50 [1] did it give?
Answer: ≥ 6.00

Question: And the pIC50 [2]?
Answer: ≥ 6.00

Question: Which results are given for O=C1CN(c2c(O)ccc(-c3cn(C4CCS(=O)(=O)CC4)cn3)c2F)S(=O)(=O)N1 [Compound 412, 5-(3-(1-(1,1-dioxidotetrahydro-2H-thiopyran-4-yl)-1H-imidazol-4-yl)-2-fluoro-6-hydroxyphenyl)-1,2,5-thiadiazolidin-3-one 1,1-dioxide]?
Answer: pIC50 [1]: ≥ 6.00; pIC50 [2]: ≥ 6.00

Question: How did the pIC50 [1] turn out when O=C1CN(c2c(O)ccc(-c3cnn(C4CCC(O)CC4)c3)c2F)S(=O)(=O)N1 (stereo not shown) [Compound 408, 5-(2-fluoro-6-hydroxy-3-(1-(4-hydroxycyclohexyl)-1H-pyrazol-4-yl)phenyl)-1,2,5-thiadiazolidin-3-one 1,1-dioxide] was run?
Answer: ≥ 6.00

Question: What about the pIC50 [2] of the same compound?
Answer: ≥ 6.00

Question: With O=C1CN(c2c(O)ccc(-c3cn(C4CC4)[nH]c3=O)c2F)S(=O)(=O)N1 [Compound 245, 5-(3-(1-cyclopropyl-3-oxo-2,3-dihydro-1H-pyrazol-4-yl)-2-fluoro-6-hydroxyphenyl)-1,2,5-thiadiazolidin-3-one 1,1-dioxide] as the compound, how does the pIC50 [1] read?
Answer: ≥ 6.00

Question: What about the pIC50 [2] of the same compound?
Answer: ≥ 6.00

Question: N#Cc1cc(F)cc(-n2cnc(-c3ccc(O)c(N4CC(=O)NS4(=O)=O)c3F)c2)c1 [Compound 433, 3-(4-(3-(1,1-dioxido-4-oxo-1,2,5-thiadiazolidin-2-yl)-2-fluoro-4-hydroxyphenyl)-1H-imidazol-1-yl)-5-fluorobenzonitrile] was tested. Which pIC50 [1] did it give?
Answer: ≥ 6.00

Question: And the pIC50 [2]?
Answer: ≥ 6.00

Question: With O=C1CN(c2c(O)ccc(C3=CC4CCC3N4)c2F)S(=O)(=O)N1 (stereo not shown) [Compound 475, 5-(3-(7-azabicyclo[2.2.1]hept-2-en-2-yl)-2-fluoro-6-hydroxyphenyl)-1,2,5-thiadiazolidin-3-one 1,1-dioxide] as the compound, how does the pIC50 [1] read?
Answer: < 6.00

Question: And the pIC50 [2]?
Answer: ≥ 6.00

Question: O=C1CN(c2c(O)ccc(-c3ccc(OCC4CC4)nc3)c2F)S(=O)(=O)N1 [Compound 166, 5-(3-(6-(cyclopropylmethoxy)pyridin-3-yl)-2-fluoro-6-hydroxyphenyl)-1,2,5-thiadiazolidin-3-one 1,1-dioxide] was tested. Which pIC50 [1] did it give?
Answer: ≥ 6.00

Question: And the pIC50 [2]?
Answer: ≥ 6.00

Question: O=C1C=C(c2c(O)ccc(-c3cn(CC4CCCCC4)cn3)c2F)S(=O)(=O)N1 [Compound 277, 5-(3-(1-(cyclohexylmethyl)-1H-imidazol-4-yl)-2-fluoro-6-hydroxyphenyl)isothiazol-3(2H)-one 1,1-dioxide] was tested. Which pIC50 [1] did it give?
Answer: ≥ 6.00

Question: And the pIC50 [2]?
Answer: ≥ 6.00

Question: O=C1CN(c2c(O)ccc(-c3cccc(N4CCCC4)c3)c2F)S(=O)(=O)N1 [Compound 122, 5-(2-fluoro-4-hydroxy-3′-(pyrrolidin-1-yl)-[1,1′-biphenyl]-3-yl)-1,2,5-thiadiazolidin-3-one 1,1-dioxide] was tested. Which pIC50 [1] did it give?
Answer: ≥ 6.00

Question: What about the pIC50 [2] of the same compound?
Answer: ≥ 6.00

Question: How did the pIC50 [1] turn out when Cn1cc(-c2ccc(O)c(N3CC(=O)NS3(=O)=O)c2F)ccc1=O [Compound 106, 5-(2-fluoro-6-hydroxy-3-(1-methyl-6-oxo-1,6-dihydropyridin-3-yl)phenyl)-1,2,5-thiadiazolidin-3-one 1,1-dioxide] was run?
Answer: ≥ 6.00

Question: And the pIC50 [2]?
Answer: ≥ 6.00

Question: How did the pIC50 [1] turn out when O=C1CN(c2c(O)ccc(-c3cc(C4CC4(F)F)no3)c2F)S(=O)(=O)N1 (stereo not shown) [Compound 490, 5-(3-(3-(2,2-difluorocyclopropyl)isoxazol-5-yl)-2-fluoro-6-hydroxyphenyl)-1,2,5-thiadiazolidin-3-one 1,1-dioxide] was run?
Answer: ≥ 6.00

Question: What about the pIC50 [2] of the same compound?
Answer: ≥ 6.00

Question: O=C1CN(c2c(O)ccc(-c3cnn(Cc4ccc(F)cc4)c3)c2F)S(=O)(=O)N1 [Compound 186, 5-(2-fluoro-3-(1-(4-fluorobenzyl)-1H-pyrazol-4-yl)-6-hydroxyphenyl)-1,2,5-thiadiazolidin-3-one 1,1-dioxide] was tested. Which pIC50 [1] did it give?
Answer: ≥ 6.00

Question: What about the pIC50 [2] of the same compound?
Answer: ≥ 6.00

Question: O=C1CN(c2c(O)ccc(-c3c[nH]nc3F)c2F)S(=O)(=O)N1 [Compound 507, 5-(2-fluoro-3-(3-fluoro-1H-pyrazol-4-yl)-6-hydroxyphenyl)-1,2,5-thiadiazolidin-3-one 1,1-dioxide] was tested. Which pIC50 [1] did it give?
Answer: ≥ 6.00

Question: And the pIC50 [2]?
Answer: ≥ 6.00

Question: How did the pIC50 [1] turn out when Cn1nc(-c2ccc(O)c(N3CC(=O)NS3(=O)=O)c2F)cc1N [Compound 529, 5-(3-(5-amino-1-methyl-1H-pyrazol-3-yl)-2-fluoro-6-hydroxyphenyl)-1,2,5-thiadiazolidin-3-one 1,1-dioxide] was run?
Answer: ≥ 6.00

Question: What about the pIC50 [2] of the same compound?
Answer: ≥ 6.00

Question: Which results are given for O=C1CN(c2c(O)ccc(-c3cnn(S(=O)(=O)C4CC4)c3)c2F)S(=O)(=O)N1 [Compound 342, 5-(3-(1-(cyclopropylsulfonyl)-1H-pyrazol-4-yl)-2-fluoro-6-hydroxyphenyl)-1,2,5-thiadiazolidin-3-one 1,1-dioxide]?
Answer: pIC50 [1]: ≥ 6.00; pIC50 [2]: ≥ 6.00
